Experimental data: patent publication US20240124454A1, “TRICYCLIC COMPOUND AND USE THEREOF” (NANJING ZAIMING PHARMACEUTICAL CO., LTD., priority 2020, published 2024)

Legend:
[1] = Metabolic stability in mouse liver microsomes; format: in vitro ADME; details: 1 μM compound, 0.5 mg/mL microsome, NADPH; for half-life at 1 μM: CD-1, mouse, liver microsomes, pH 7.4, read-out: Mouse liver microsome stability t1/2
Experimental: Test Example 4. Determination of Metabolic Stability of Compound of the Present Application in Liver Microsomes
The metabolic stability of the compound of the present application in liver microsomes was determined using the following method.
I. Experimental materials and instruments • 1. Human liver microsome (Corning 452117), beagle dog liver microsome (XENOTECH D1000), SD rat liver microsome (XENOTECH R1000), and CD-i mouse liver microsome (XENOTECH M1000) • 2. Na2HPO4 (Tianjin Guangfu Fine Chemical Research Institute 20180130) • 3. KH2PO4 (Tianjin Guangfu Fine Chemical Research Institute 20180920) • 4. MgCl2 (Tianjin Guangfu Fine Chemical Research Institute 20191216) • 5. NADPH (Solarbio 1216C022) • 6. Positive control compound verapamil (Sigma MKBV4993V) • 7. AB Sciex API4000 liquid chromatography-mass spectrometry system
(§1) 1. Preparation of 100 mMV phosphate-buffered saline (PBS): 7.098 g Na2HPO4 was weighed. 500 mL pure water was added. The mixture was dissolved by sonication to give solution A. 3.400 g KH2PO4 was weighed. 250 mL pure water was added. The mixture was dissolved by sonication to give solution B. The solution A was placed in a stirrer, and the solution B was slowly added until the pH reached 7.4, so that the 100 mM PBS buffer was prepared.
2. Preparation of reaction system
The reaction system was prepared as follows:
3. The reaction system was pre-incubated in a 37° C. water bath for 10 min. 40 μL of 10 mM NADPH solution (NADPH was dissolved by 100 mM phosphate-buffered saline) was added to the reaction system with a final concentration of NADPH being 1 mM. A negative control was made by replacing the NADPH solution with 40 μL phosphate-buffered saline. The negative control was used to exclude the effect of chemical stability of the compound itself.
4. The reaction was initiated by adding 4 μL of 100 μM of the compound of the present application and verapamil, the positive control compound, to the reaction system with a final concentration of the compound being 1 μM.
5. After being uniformly mixed in a vortex oscillator, 50 μL incubation sample was respectively taken out at 0.5, 15, 30, 45, and 60 min, and the reaction was stopped by 200 μL glacial acetonitrile containing an internal standard. The sample was centrifuged at 3220 g for 45 min. 90 μL of the supernatant was transferred to a feeding plate after the centrifugation was completed, and 90 μL ultrapure water was added. The mixture was well mixed for LC-MS/MS analysis.
All data were calculated by Microsoft Excel software. The peak area was detected through an extracted ion chromatogram. The in vitro half-life (t1/2) of the compound was determined by linear fitting of the natural logarithm of compound elimination percentage over time.
In vitro half-life (t1/2) was calculated by the slope: […]
The in vitro intrinsic clearance (in μL/min/mg protein) was calculated using the following formula:
in vitro CLint=k×volume of incubation (μL)/amount of proteins (mg)
CLint was intrinsic clearance; k was an elimination rate constant; volume of incubation was the incubation volume (μL); amount of proteins was the amount of protein (mg)

[2] = molecular target: CYP2D6 (Homo sapiens (Human), UniProt P10635); test: CYP2D6 inhibition in human liver microsomes (dextromethorphan substrate); format: in vitro ADME; details: human liver microsome
Sequence of CYP2D6 (P10635 whole entry): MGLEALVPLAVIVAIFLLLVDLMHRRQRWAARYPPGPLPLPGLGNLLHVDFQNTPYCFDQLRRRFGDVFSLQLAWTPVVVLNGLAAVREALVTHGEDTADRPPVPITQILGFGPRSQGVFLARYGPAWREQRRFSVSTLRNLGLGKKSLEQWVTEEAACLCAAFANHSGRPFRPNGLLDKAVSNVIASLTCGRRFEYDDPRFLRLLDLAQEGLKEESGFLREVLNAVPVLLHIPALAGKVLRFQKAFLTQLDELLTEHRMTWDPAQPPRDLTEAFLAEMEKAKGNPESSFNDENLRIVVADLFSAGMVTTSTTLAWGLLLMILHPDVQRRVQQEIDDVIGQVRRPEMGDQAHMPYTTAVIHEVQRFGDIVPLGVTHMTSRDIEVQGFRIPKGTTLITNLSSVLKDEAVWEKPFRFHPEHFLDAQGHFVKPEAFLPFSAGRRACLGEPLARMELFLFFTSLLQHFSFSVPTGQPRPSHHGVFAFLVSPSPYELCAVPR
Experimental: Test Example 7. Inhibitory Effect of Compound of the Present Application on Enzymatic Activity of CYP2C9, CYP2D6, and CYP3A4
The inhibition of CYP2C9, CYP2D6, and CYP3A4 activity by the compound of the present application was determined using the following method.
I. Experimental materials and instruments • 1. Human liver microsome (Corning 452117) • 2. NADPH (Solarbio 705Y021) • 3. Positive substrates diclofenac (Sigma SLBV3438), dextromethorphan (TRC 3-EDO-175-1), and midazolam (Cerilliant FE01161704) • 4. Positive inhibitors sulfaphenazole (D. Ehrenstorfer GmbH 109012), quinidine (TCI WEODL-RE), and ketoconazole (Sigma 100M1091V) • 5. AB Sciex Triple Quad 5500 liquid chromatography-mass spectrometry system
as §1, with “mM” for “mMV”
2. A 10 mM NADPH solution was prepared with a 100 mM PBS buffer. A 10 mM stock solution of the compound of the present application was diluted with DMSO to give a compound working solution at a concentration of 200×(6000, 2000, 600, 200, 60, 20, and 0 μM). The positive inhibitor stock solution was diluted with DMSO to give a positive inhibitor working solution at a concentration of 200×(sulfaphenazole, 1000, 300, 100, 30, 10, 3, and 0 μM; quinidine/ketoconazole, 100, 30, 10, 3, 1, 0.3, and 0 μM). Substrate working solutions (120 μM diclofenac, 400 μM dextromethorphan, and 200 μM midazolam) at a concentration of 200× were prepared with water, acetonitrile, or acetonitrile/methanol.
3. 2 μL of 20 mg/mL liver microsome solution, 1 μL of substrate working solution, 1 μL of compound working solution, and 176 μL of PBS buffer were taken, mixed well, and placed in a 37° C. water bath for pre-incubation for 15 min. 1 μL of sulfaphenazole, quinidine, or ketoconazole working solution was added to the positive control group instead of the compound working solution. At the same time, 10 mM NADPH solution was placed together in the 37° C. water bath for pre-incubation for 15 min. After 15 min, 20 μL of NADPH was added to each well to initiate the reaction. The mixture was incubated at 37° C. for 5 min (CYP2C9), 20 min (CYP2D6), or 5 min (CYP3A4). All incubated samples were in duplicate. After incubation for the corresponding period of time, 400 μL of icy methanol containing internal standard was added to all samples to stop the reaction. The mixture was vortexed, mixed well, and centrifuged for 40 min at 4° C. at 3220 g. 100 μL of the supernatant was transferred to a feeding plate after the centrifugation was completed, and 100 μL ultrapure water was added. The mixture was well mixed for LC-MS/MS analysis.
The reduction of metabolite production in the treatment groups versus the control group was compared by the peak area ratios of the sample to the internal standard, and the IC50 value was calculated using Excel XLfit 5.3.1.3.
Percentages of remaining activity were calculated according to the following formula:
Remaining activity%=peak area ratio of metabolite to internal standardtest sample/peak area ratio of metabolite to internal standardblank solvent×100%.

Row | SMILES | half-life at 1 μM [1] | IC50 [2] | Mouse liver microsome stability t1/2 [1]
1 | Cc1ncccc1-n1c(=O)c2ncn(C)c2c2ccc(C(F)(F)F)nc21 (atropisomer, axis not shown) [Compound 20, 1-methyl-5-(2-methylpyridin-3-yl)-7-(trifluoromethyl)-1,5-dihydro-4H-imidazo[4,5-c][1,8]naphthyridin-4-one] | > 5 h | > 30 µM | 
2 | Cn1cnc2c(=O)n(-c3cccc(F)c3Cl)c3nc(C(F)(F)F)ccc3c21 (atropisomer, axis not shown) [Compound 25, 5-(2-chloro-3-fluorophenyl)-1-methyl-7-(trifluoromethyl)-1,5-dihydro-4H-imidazo[4,5-c][1,8]naphthyridin-4-one] | 4.78 h | > 30 µM | 
3 | Cn1cnc2c(=O)n(-c3cccc(F)c3Cl)c3nc(C(F)(F)F)ccc3c21 (single isomer, unassigned) [Compound 25-P2, 5-(2-chloro-3-fluorophenyl)-1-methyl-7-(trifluoromethyl)-1,5-dihydro-4H-imidazo[4,5-c][1,8]naphthyridin-4-one] | > 5 h | > 30 µM | 
4 | Cn1cnc2c(=O)n(-c3cccnc3C(F)(F)F)c3nc(C(F)(F)F)ccc3c21 (single isomer, unassigned) [Compound 41-P2, 1-methyl-7-(trifluoromethyl)-5-(2-(trifluoromethyl)pyridin-3-yl)-1,5-dihydro-4H-imidazo[4,5-c][1,8]naphthyridin-4-one] | > 5 h | 18.2 µM | 
5 | Cn1cnc2c(=O)n(-c3cccnc3C3CC3)c3nc(C(F)(F)F)ccc3c21 (single isomer, unassigned) [Compound 42-P2, 5-(2-cyclopropylpyridin-3-yl)-1-methyl-7-(trifluoromethyl)-1,5-dihydro-4H-imidazo[4,5-c][1,8]naphthyridin-4-one] | 1.86 h | > 30 µM | 
6 | Cn1cnc2c(=O)n(-c3cccnc3C3CC3)c3cc(C(F)(F)F)ccc3c21 (single isomer, unassigned) [Compound 48-P2, 5-(2-cyclopropylpyridin-3-yl)-1-methyl-7-(trifluoromethyl)-1,5-dihydro-4H-imidazo[4,5-c]quinolin-4-one] | > 5 h | > 30 µM | 
7 | Cn1cnc2c(=O)n(-c3cccnc3C3CC3)c3cc(Cl)ccc3c21 (single isomer, unassigned) [Compound 49-P2, 7-chloro-5-(2-cyclopropylpyridin-3-yl)-1-methyl-1,5-dihydro-4H-imidazo[4,5-c]quinolin-4-one] | > 5 h | > 30 µM | 
8 | O=c1c2ncoc2c2ccc(C(F)(F)F)nc2n1-c1cccnc1C1CC1 (single isomer, unassigned) [Compound 81-P2, 5-(2-cyclopropylpyridin-3-yl)-7-(trifluoromethyl)oxazolo[4,5-c][1,8]naphthyridin-4(5H)-one] |  | > 30 µM | 
9 | Cn1cnc2c(=O)n(-c3cccc(F)c3Cl)c3cc(Cl)ccc3c21 [Compound 39, 7-chloro-5-(2-chloro-3-fluorophenyl)-1-methyl-1,5-dihydro-4H-imidazo[4,5-c]quinolin-4-one] |  | > 30 µM | >5 h
10 | Cc1ncccc1-n1c(=O)c2ncoc2c2ccc(C(F)(F)F)nc21 [Compound 40, 5-(2-methylpyridin-3-yl)-7-(trifluoromethyl)oxazolo[4,5-c][1,8]naphthyridin-4(5H)-one] | > 5 h | > 30 µM | 
11 | Cc1ncccc1-n1c(=O)c2ncn(C)c2c2ccc(C(F)(F)F)cc21 [Compound 45, 1-methyl-5-(2-methylpyridin-3-yl)-7-(trifluoromethyl)-1,5-dihydro-4H-imidazo[4,5-c]quinolin-4-one] | > 5 h | > 30 µM | 
